Data published in patent EP0007525A1, “2-(4-Aminopiperidino)-3.4-dihydroquinoline derivatives, processes for their preparation, pharmaceutical compositions containing them and their use” (HOECHST AKTIENGESELLSCHAFT, priority 1978, dated 1980).

Assays:
Format in all cases: in vivo
[1] = system: mit Strophantin vergiftete Hund; assay: Antiarrhythmic effect in the strophanthin-poisoned dog (ventricular extrasystoles, ECG); details: dog poisoned with K-Strophanthin i.v. infusion until frequent ventricular extrasystoles; 1 mg/kg intravenous; active = arrhythmia completely abolished
Description: 2) Zur Prüfung auf antiarrythmische Wirkung wird der mit Strophantin vergiftete Hund verwendet (Methode: Laszlo Szekeres, Institute of Pharmacology, University Medical School of Szeged, Hungary, Methods for Evaluating Antiarrhytmic Agents" in Methods in Pharmacology I, New York 1971, Herausgeber A. Schwartz).

[2] = system: narkosierten Hund; assay: Blood pressure lowering in the anaesthetised dog (pentobarbital sodium), i.v. administration; details: 1 mg/kg intravenous; for Blutdrucksenkung: significant lowering; for Dauer der Blutdrucksenkung: time over which lowering of at least 20 mm persists
Experimental: (§1) 1)Die blutdrucksenkende Wirkung wurde am narkosierten Hund und an der Hochdruckratete bestimmt.
Hunde werden mit Pentobarbital-Natrium (^(R)Nembutal) (35 mg/kg i.p.) narkotisiert, die Prüfsubstanz in Dosen von 0,5-5 mg/kg. intravenös appliziert und die Blutdrucksenkung laufend über 30 bis 60 Minuten, bei längerer Wirksamkeit auch länger, fortlaufend registriert. Eine signifikante Senkung von mindestens 20 mm über mindestens 30 Minuten tritt z.B. nach Applikation der Verbindungen der Beispiele Nr. 6 und 31b in Dosen von jeweils 1 mg/kg ein.

[3] = system: genetischen Hochdruckratte; assay: Blood pressure lowering in the genetically hypertensive rat, oral administration; details: 15 mg/kg per os, within 18 hours
Experimental: as §1
Zur Prüfung an der genetischen Hochdruckratte werden die Substanzen oral verabreicht. Die Verbindung des Beispiels 31b bewirkt bei einer Dosierung von 15 mg/kg per os innerhalb von 18 Stunden einen Blutdruckabfall von 30 - 50 mm.

Row | Structure (SMILES) | antiarrythmische Wirkung (Beseitigung der Rhythmusstörungen) [1] | Blutdrucksenkung [2] [mm] | Dauer der Blutdrucksenkung [2] [Minuten] | Blutdruckabfall [3]
1 | CC(C)(C)OC(=O)NC1CCN(C2=Nc3ccccc3CC2)CC1 [Beispiel 31a, 2-(4-Tert.butyloxycarbonylamino-1-piperidyl)-3,4-dihydro-chinolin] | Rhythmusstörungen völlig zu beseitigen vermochte | – | – | –
2 | COc1cc2c(cc1OC)N=C(N1CCC(NC(=O)c3ccccc3)CC1)CC2 [Beispiel 6] | – | ≥ 20 | ≥ 30 | –
3 | NC1CCN(C2=Nc3ccccc3CC2)CC1 [Beispiel 31b, 2-(4-Amino-1-piperidyl)-3,4-dihydrochinolin] | – | ≥ 20 | ≥ 30 | 30 - 50 mm
